{"source": "patent US20210322462A1", "about": "“WOUND PREVENTION AND/OR TREATMENT AND RELATED COMPOUNDS, MATRICES, COMPOSITIONS, METHODS AND SYSTEMS” (CALIFORNIA INSTITUTE OF TECHNOLOGY, priority 2020, published 2021)", "key": {"[1]": {"system": "Pseudomonas aeruginosa ΔhflC", "assay": "Chlorate sensitivity assay and chlorate quantification, ΔhflC versus wild type", "type": "cell-based", "settings": "1 mM chlorate", "experimental": "(§1) Chlorate sensitivity assay was then performed. In particular, to test mutants for chlorate sensitivity, overnight cultures of each strain were grown aerobically in LB with 40 mM KNO3. Cultures were pelleted, washed twice with LB to remove residual KNO3, and resuspended in LB without (control) or with 1 mM NaClO3 to final OD500=1. Cultures were moved to the anaerobic glove box to adapt to anoxia.\n[…] At 72 hours, part of the culture was also pelleted, and supernatant collected for quantifying chlorate concentrations via ion chromatography.\n(§2) Chlorate quantification was then performed via ion chromatography. In particular, culture samples were pelleted, and the supernatant was diluted 1:10 in dH2O in a 0.5 mL vial (Thermo Fisher Scientific catalog numbers 038010 and 038011). Chlorate concentrations were determined using a Dionex ICS 2000 ion chromatography as described previously (Spero and Newman 2018).) at the Environmental Analysis Center at Caltech."}, "[2]": {"system": "Pseudomonas aeruginosa ΔnarGHJI", "assay": "Chlorate sensitivity assay and chlorate quantification, ΔnarGHJI versus wild type", "type": "cell-based", "settings": "1 mM chlorate, 72 hours", "experimental": "as §1\nCultures were incubated at 37° C. for 72 hours, after which they were removed from the anaerobic glove box to determine viable cell counts for calculating percent survival as described previously) (Spero and Newman 2018).). At 72 hours, part of the culture was also pelleted, and supernatant collected for quantifying chlorate concentrations via ion chromatography.\nas §2"}}}
{"smiles": "[O-][Cl+2]([O-])O", "note": "[chlorate, NaClO3]", "values": [{"measurement": "chlorate resistance (% survival) relative to WT", "setting": "[1]; over the course of 48 hours (FIG. 3A)", "result": "more resistant to chlorate than WT"}, {"measurement": "Nar activity, chlorate reduction (% chlorate remaining) relative to WT", "setting": "[1]; over the course of 48 hours (FIG. 3B)", "result": "lower rates of chlorate reduction"}, {"measurement": "chlorate resistance (% survival) relative to WT", "setting": "[2]; anaerobic, 37° C. (FIG. 2A)", "result": "more resistant to chlorate than WT"}, {"measurement": "Nar activity, chlorate reduction (% chlorate remaining) relative to WT", "setting": "[2]; ion chromatography (FIG. 2B)", "result": "lower rates of chlorate reduction"}]}
